From patent US20250295777A1, “HOMEOPATHIC PHARMACEUTICAL COMPOSITION FOR TREATING UPPER AND LOWER RESPIRATORY TRACT DISEASES” (priority 2022, published 2025)
Where a name gives a salt, the structure may show the parent alone. Read-outs that look alike come from different tables or passages of the source.

Key:
[1] = test system: upper respiratory tract ciliated epithelium cilia; test: beating frequency of the ciliated epithelium cilia (in vitro, test sample vs isotonic NaCl control); assay type: cell-based, human (patients)
Excerpt: (§1) To determine the efficiency of mucociliary clearance, the authors of the present invention measured the frequency (Frequency) and period (Time) of the upper respiratory tract ciliated epithelium cilia beating using methods for determining these parameters that are well known to persons skilled in the art and have been repeatedly described in the prior art. The authors of the invention took into account that sufficient functioning of the ciliated epithelium cilia is the most important parameter of the effectiveness of mucociliary clearance (Duchateau G S M J E, Graamans K., Zuidema J., Merkus F W H M.—Laryngoscope 1985; 95:854-859), and, therefore, they measured the percentage of ciliated epithelium cells with motile cilia (Movement). Non-limiting (illustrative) examples of methods for determining the parameters of the upper respiratory tract ciliated epithelium cilia beating are given in V. V. Shabalin et al., Biophysical Methods for Studying Mucociliary Transport of the Normal and Pathological Upper and Lower Respiratory Tract.—See in Problems of Therapeutic and Surgical Pulmonology, collection of conference materials, Saint Petersburg, 1997, pp. 44-45.
(§2) The effect of the composition of the invention on the performance of the ciliated epithelium cilia and the lifespan of the ciliated epithelium was studied in comparison with separate components (Apis mellifica, Eupharsia officinalis, Allium cepa, Tatrarus stibiatus, Hepar sulphur, and Arnica montana separately), with the composition according to patent RU 2748548 and with an isotonic NaCl solution (0.9% solution).
(§3) The study included patients with acute and chronic rhinosinusitis, as well as patients without a history of otolaryngological disorders.
(§4) It is well known to persons skilled in the art that the optimal medium for the ciliated epithelium functioning is a saline (0.9% NaCl solution) and that this medium allows the ciliated epithelium cells to move synchronously and live the longest; therefore, ciliated epithelium treated with a saline was used as a control.
(§5) The results include the following parameters: • Frequency 1, Hz—the beating frequency of the ciliated epithelium cilia in the test sample, • Frequency 2, Hz—the beating frequency of the ciliated epithelium cilia in the control (isotonic NaCl solution), • Time 1, min—lifespan of the ciliated epithelium cilia in the test sample, • Time 2, min—lifespan of the ciliated epithelium cilia in the control.

[2] = test system: upper respiratory tract ciliated epithelium; test: lifespan of the ciliated epithelium cilia / cell survival time in vitro (test sample vs isotonic NaCl control); assay type: cell-based, human (patients)
Excerpt: as §1, §2, §3, §4, §5

[3] = test system: ciliated epithelium (upper respiratory tract epithelium cilia); settings: cited from earlier work
[4] = average values over 5 patients / dilutions D3-C30
[5] = dilution C3, single patient sample
[6] = dilution C6, single patient sample
[7] = dilution C30, single patient sample
[8] = dilution D3, single patient sample
[9] = dilution D6, single patient sample

Molecule: O.O.O.O=C([O-])[C@H]([O-])[C@@H]([O-])C(=O)[O-].O=C([O-])[C@H]([O-])[C@@H]([O-])C(=O)[O-].[K+].[K+].[Sb+3].[Sb+3] [Tartarus stibiatus, tartrate of antimony and potassium]
- Frequency 1, Hz (beating frequency of the ciliated epithelium cilia in the test sample) [1, 4]: 5.2134 Hz
- Frequency 1, Hz (beating frequency of the ciliated epithelium cilia in the test sample) [1, 5]: 6.503 Hz
- Frequency 1, Hz (beating frequency of the ciliated epithelium cilia in the test sample) [1, 6]: 5.283 Hz
- Frequency 1, Hz (beating frequency of the ciliated epithelium cilia in the test sample) [1, 7]: 4.092 Hz
- Frequency 1, Hz (beating frequency of the ciliated epithelium cilia in the test sample) [1, 8]: 5.177 Hz
- Frequency 1, Hz (beating frequency of the ciliated epithelium cilia in the test sample) [1, 9]: 5.012 Hz
- Time 1, min (lifespan of the ciliated epithelium cilia in the test sample) [2, 4]: 24.6 min
- Time 1, min (lifespan of the ciliated epithelium cilia in the test sample) [2, 5]: 28 min
- Time 1, min (lifespan of the ciliated epithelium cilia in the test sample) [2, 6]: 20 min
- Time 1, min (lifespan of the ciliated epithelium cilia in the test sample) [2, 7]: 28 min
- Time 1, min (lifespan of the ciliated epithelium cilia in the test sample) [2, 8]: 27 min
- Time 1, min (lifespan of the ciliated epithelium cilia in the test sample) [2, 9]: 20 min

Molecule: CC(C)(O)C(Cl)(Cl)Cl [chlorbutol]
- ciliary beat frequency (CBF) reduced by [3]: 100%

Molecule: C[C@@H]1CN([C@H]2CC[C@](C#N)(c3ccc(F)cc3)CC2)CC[C@]1(C(=O)O)c1ccccc1 [levocabastine]
- ciliary beat frequency (CBF) reduced by [3]: 13%

Molecule: C[CH2][Hg][S]c1ccccc1C(=O)[O-].[Na+] [thiomersal]
- ciliary beat frequency (CBF) reduced by [3]: 100%

Molecule: Cc1cc(C(C)(C)C)cc(C)c1CC1=NCCN1 [xylometazoline hydrochloride]
- ciliary beat frequency (CBF) reduced by ([3]; 0.1% solution): 69%

Molecule: neomycin
- ciliary beat frequency (CBF) reduced by [3]: 82%
